Biological target: T1, GPR35 (Homo sapiens, UniProt Q9HC97)
T1 construct: host or cells: PathHunter GPR35 cell line
Experiment: GPR35 activation, PathHunter β-Arrestin assay (DiscoverX)
Type: cell-based
Conditions: β-arrestin recruitment; for activation of GPR35 (result in words): highest concentration tested 10 mM; for EC50: β-Gal enzyme fragment complementation, chemiluminescence, highest concentration 10 mM, 3× dilutions, duplicate
Method: Six human milk oligosaccharides (LNnT, LNT, 2′-FL, DFL, 6′-SL and 3′-SL) were screened for their ability to activate the GPR35 receptor in an in vitro assay. The screening was conducted by DiscoverX (Fremont, Calif., USA) using the PathHunter β-Arresin assay. This assay monitored the activation of GPR35 expressed in cultured cells, using Enzyme Fragment Complementation with β-galactosidase (β-Gal) as the functional reporter. […] EA was fused to […]. When the GPR35 is activated and β-Arrestin is recruited to the receptor, PK and EA complementation occurs, restoring β-Gal activity, which was measured using chemiluminescent Detection Reagents.
The GPR35 cell line was expanded from frozen stocks and cultured according to standard procedures. Cells were seeded in a total volume of 20 μl into white walled, 384-well microplates and incubated at 37° C. for the appropriate time prior to testing. All of the testings were done in duplicate.
HMO samples were shipped to DiscoverX as concentrated stocks in Phosphate Buffered saline. On the test day, a 5× compound working intermediate was prepared in PBS. Five μl of 5× sample were added to cells and incubated at room temperature for 3 to 5 hours.
Assay signal was generated through a single addition of 12.5 μl (50 v/v %) of PathHunter Detection reagent cocktail, followed by one-hour incubation at room temperature. Microplates were read following signal generation with a PerkinElmer Envision™ instrument for chemiluminescent signal detection. Zaprinast (which is known to be an activator of GPR35) was used as positive control. Dose-responses were generated by iterative 3× dilutions of the highest concentration tested (10 mM).

T1 sequence (Q9HC97 whole entry): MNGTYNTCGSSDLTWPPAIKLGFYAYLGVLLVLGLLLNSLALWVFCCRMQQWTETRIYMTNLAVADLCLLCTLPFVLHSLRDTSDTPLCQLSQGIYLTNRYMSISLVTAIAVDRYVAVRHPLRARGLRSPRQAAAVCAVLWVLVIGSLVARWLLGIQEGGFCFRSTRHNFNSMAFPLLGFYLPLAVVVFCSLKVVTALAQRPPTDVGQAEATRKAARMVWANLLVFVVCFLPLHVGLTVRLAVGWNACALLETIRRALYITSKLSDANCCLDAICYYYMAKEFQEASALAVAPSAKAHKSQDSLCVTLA

Structure (SMILES) | activation of GPR35 (result in words) | EC50
CC(=O)N[C@H]1[C@H]([C@H](O)[C@H](O)CO)O[C@@](O[C@H]2[C@@H](O)[C@@H](CO)O[C@@H](O[C@H]3[C@H](O)[C@@H](O)C(O)O[C@@H]3CO)[C@@H]2O)(C(=O)O)C[C@@H]1O (some centres unmarked) [3′-SL, 3′-sialyllactose] | No activation | 
CC(=O)N[C@H]1[C@H]([C@H](O)[C@H](O)CO)O[C@@](OC[C@H]2O[C@@H](O[C@H]3[C@H](O)[C@@H](O)[C@H](O)O[C@@H]3CO)[C@H](O)[C@@H](O)[C@H]2O)(C(=O)O)C[C@@H]1O [6′-SL, 6′-sialyllactose] |  | 6.5 mM
C[C@@H]1O[C@@H](O[C@H]2[C@H](O[C@H]3[C@H](O[C@@H]4O[C@@H](C)[C@@H](O)[C@@H](O)[C@@H]4O)[C@@H](O)C(O)O[C@@H]3CO)O[C@H](CO)[C@H](O)[C@@H]2O)[C@@H](O)[C@H](O)[C@@H]1O (some centres unmarked) [DFL, difucosyllactose] | No activation | 

More lines, now with the values ahead:

activation of GPR35 (result in words) | EC50 | Structure (SMILES)
No activation |  | CC(=O)N[C@H]1[C@H](O[C@H]2[C@@H](O)[C@@H](CO)O[C@@H](O[C@H]3[C@H](O)[C@@H](O)C(O)O[C@@H]3CO)[C@@H]2O)O[C@H](CO)[C@@H](O[C@@H]2O[C@H](CO)[C@H](O)[C@H](O)[C@H]2O)[C@@H]1O (mixture of isomers) [LNnT, lacto-N-neotetraose]
 | 4.5 mM | CC(=O)N[C@H]1[C@H](O[C@H]2[C@@H](O)[C@@H](CO)O[C@@H](O[C@H]3[C@H](O)[C@@H](O)C(O)O[C@@H]3CO)[C@@H]2O)O[C@H](CO)[C@@H](O)[C@@H]1O[C@@H]1O[C@H](CO)[C@H](O)[C@H](O)[C@H]1O (some centres unmarked) [LNT, lacto-N-tetraose]

— patent publication US20220054515A1, “COMPOSITION AND METHOD FOR PROMOTING INTESTINAL BARRIER HEALING” (Glycom A/S, priority 2018, published 2022)
